The values that follow come from US5270316A, “Condensed purine derivatives” (Kyowa Hakko Kogyo Co., Ltd., priority 1989, dated 1993).

pIC50: −log10 of the molar value. Where two headings read alike, the source gives them in different places. A value given as a limit tells only on which side of the number the result lay.

Data set [1] can be described thus: Acute toxicity, minimum lethal dose (oral, mice). The conditions noted are these: male dd-mice, mortality observed for seven days. The class given is in vivo. How it is done: The compounds were orally administrated to male dd-mice weighing 20±1 g. Minimum lethal dose (MLD) was determined by observing the mortality for seven days after the administration.
Data set [2] is described as follows: Diuretic activity (oral, urine collected for 6 hours). The data set is classed as in vivo, rat (Wistar male rats). The conditions noted are these: Rattus norvegicus, rats; for response vs control in vivo at 25 mg/kg: 25 mg/kg oral; for response vs control in vivo at 6.25 mg/kg: 6.25 mg/kg oral; for response vs control in vivo at 1.6 mg/kg: 1.6 mg/kg oral. The protocol:
Wistar male rats weighing 150 to 300 g were used after they were fasted for 18 hours. A test compound or saline (control) was orally administered to rats and urine was collected for 6 hours. The test was performed using 3 groups per the test compound, and each group consists of 3 animals. The urine was metered by a measuring cylinder and electrolytes (Na^+ and K^+) in the urine were assayed with a flame photometer (model […] manufactured by Hitachi Ltd.). Parameters in Table 3 are all expressed by relative value for control.

The subject of data set [3] is Glycerol-induced Renal Deficient Model. Kind of data set: Renal protecting activity (glycerol-induced renal deficient model): serum creatinine and urea nitrogen. The data set is classed as in vivo, rat (Wistar male rats). Particulars: 10 mg/kg intraperitoneal, rats, 24 hours after glycerol injection, own control beside each compound; for Creatinine in serum, glycerol treated, test compound administrated: normal control 0.50; for Urea nitrogen in serum, glycerol treated, test compound administrated: normal control 15.2. The protocol:
It is well known that subcutaneous or intramuscular administration of glycerol to rat induce acute renal insufficiency characterized by renal tubular disturbance [Can J. Physiol.
Wistar male rats (fasted both food and water for 18 hours) were used. A test compound or saline (control) was intraperitoneally administered (dose: 10 mg/kg) to rats. After 30 minutes rats were anesthesized with ether and the back skin was picked up and 0.8 ml/100 g of 50% glycerol was subcutaneously administered. 24 hours after the glycerol injection, the rats were anesthesized with ether and 5 ml of the blood was collected from the descending aorta. To obtain the serum, after allowing it to stand for 30 minutes or longer, the blood sample was centrifuged at 3000 rpm for 10 minutes. Creatinine in the serum sample was determined using autoanalyzer (AU510, Olympus) or clinical analysis kit of creatinine (Creatinine Test Wako; by Wako Pure Chemical Ind., Japan). Urea nitrogen in the serum was determined using autoanalyzer (AU510; made by Olympus Optical Co., Ltd, Japan) or clinical analysis kit of urea nitrogen (Urea nitrogen test wako; by Wako Pure Chemical Ind., Japan).

For a further data set, the system named is trachea. The data set is described as follows: Passive Schultz-Dale reaction (bronchodilatory effects), relaxation of sensitized trachea strips. Set-up: species or system guinea pig (Hartley male). The conditions noted are these: Cavia porcellus; sensitized guinea pig trachea, EWA 1 μg/ml, 37° C.; read-out: Passive S-D reaction IC50 (concentration of 50% relaxation rate). The protocol:
Guinea pigs were passively sensitized as follows. […] After 24 hours, the guinea pigs were stunned and exsanguinated, and then trachea was excised. The zig-zag strips of the trachea were prepared by the method of Emmerson and Mackay [J. Pharm. […] After the contraction curves reached plateau the compounds were successively added in order to get cumulative concentration-relaxation curves.

The test system of data set [4] is Platelet Activating Factor (PAF)-induced mortality. Kind of data set: Inhibition of Platelet Activating Factor (PAF)-induced mortality. The data set is classed as in vivo, mouse (male dd mice). Particulars: Mus musculus, 2 h, oral, mice, one hour before PAF 40 μg/kg i.v., p<0.05 vs control, read-out: PAF-induced mortality inhibition, minimum effective dose (MED). The protocol: The experiment was performed by a minor modification of method of Carlson et al. [Agents and Actions, 21, 379 (1987)]. Groups each consisting of 10 male dd mice (weighing 28 to 32 g) were used, and 100 mg/kg of test compound or a saline (control) was orally administrated. One hour after the administration of test compound, 40 μg/kg of PAF (manufactured by Avanti Polar Lipids Co., Ltd.) was intravenously administered. Two hours after PAF injection, the mortality rate of the animals was observed.

[5] abbreviates: relative value for control (1.00), read-out: Na+/K+.
Setting [6] is: relative value for control, read-out: Excretion of K+.
[7] abbreviates: relative value for control, read-out: Excretion of Na+.
Setting [8] is: relative value for control, read-out: Urine volume.

For `O=C1N2CCN=C2c2[nH]cnc2N1Cc1ccccc1` [9 Sa], the “Minimum lethal dose (MLD)” value in data set [1] is recorded as greater than 300 mg/kg. For the same molecule, the response vs control in vivo at 25 mg/kg was found to be 126% in data set [2] (setting [5]), 31% in data set [2] (setting [6]), 65% in data set [2] (setting [7]) and 88% in data set [2] (setting [8]).

Consider `CCCN1C(=O)N2C(=NCC2C)c2[nH]c(C3CCCC3)nc21` (stereo not shown) [19 Sa], for which the “Minimum lethal dose (MLD)” value in data set [1] is greater than 300 mg/kg. The response vs control in vivo at 25 mg/kg was 143% in data set [2] (setting [5]), 31% in data set [2] (setting [6]), 87% in data set [2] (setting [7]) and 111% in data set [2] (setting [8]).

For the molecule `CCCC1CN2C(=O)N(CCC)c3nc(C4CCCC4)[nH]c3C2=N1` (stereo not shown) [17 Sa], in data set [3], the “Creatinine in serum, glycerol treated, test compound administrated” value (from here on “Creatinine in serum, glycerol treated”) came out at 2.35 ± 0.11 mg/dL. In data set [3], the “Urea nitrogen in serum, glycerol treated, test compound administrated” value (from here on “Urea nitrogen in serum, glycerol treated”) turned out to be 88.0 ± 4.9 mg/dL. Further, the “Minimum lethal dose (MLD)” value in data set [1] was greater than 300 mg/kg. Moreover, the response vs control in vivo at 6.25 mg/kg in data set [2] (setting [5]) stood at 291%; in data set [2] (setting [6]), 18%; in data set [2] (setting [7]), 158%; in data set [2] (setting [8]) it was 138%.

Consider `CCCN1C(=O)N2CC(C)(C)N=C2c2[nH]c(C3CCCC3)nc21` [14 Sa], for which, in the data set with trachea, the pIC50 was 4.96. In addition, the “Creatinine in serum, glycerol treated” value in data set [3] stood at 2.62 ± 0.40 mg/dL. The “Urea nitrogen in serum, glycerol treated” value in data set [3] was 94.8 ± 14.3 mg/dL. In addition, in data set [1], the “Minimum lethal dose (MLD)” value was greater than 300 mg/kg. For the same molecule, the minimal effective dose in data set [4] is 100 mg/kg. The response vs control in vivo at 6.25 mg/kg in data set [2] (setting [5]) is 123%; in data set [2] (setting [6]) it was 43%; in data set [2] (setting [7]), 75%; in data set [2] (setting [8]), 113%. In addition, the response vs control in vivo at 25 mg/kg in data set [2] (setting [5]) turned out to be 200%; in data set [2] (setting [6]), 31%; in data set [2] (setting [7]), 162%; in data set [2] (setting [8]), 145%.

For the molecule `CCCN1C(=O)N2CCN=C2c2c1nc(C1CCCC1)n2C` [Compound 7, 2-Cyclopentyl-1-methyl-4-n-propyl-1,4,7,8-tetrahydro-5H-imidazo[2,1-i]purin-5-one], the pIC50 in the data set on trachea was 5.09. Also, the “Creatinine in serum, glycerol treated” value in data set [3] came to 1.70 ± 0.17 mg/dL. The “Urea nitrogen in serum, glycerol treated” value in data set [3] was 64.3 ± 7.1 mg/dL. Also, in data set [4], the minimal effective dose was greater than 100 mg/kg. Also, the response vs control in vivo at 25 mg/kg is 137% in data set [2] (setting [5]), 56% in data set [2] (setting [6]), 114% in data set [2] (setting [7]) and 128% in data set [2] (setting [8]).

Consider `Cn1c(=O)c2[nH]cnc2n(C)c1=O` [Aminophylline, reference compound], for which, in data set [3], the “Creatinine in serum, glycerol treated” value was determined as 1.72 ± 0.07 mg/dL and the “Urea nitrogen in serum, glycerol treated” value was found to be 30.6 ± 2.0 mg/dL.

For the molecule `CCCN1C(=O)N2CC(CC)N=C2c2[nH]c(C3CCCC3)nc21` (stereo not shown) [Compound 8, 2-Cyclopentyl-8-ethyl-4-n-propyl-1,4,7,8-tetrahydro-5H-imidazo[2,1-i]purin-5-one], in the data set on trachea, the pIC50 is 4.14. Besides, the “Creatinine in serum, glycerol treated” value in data set [3] was determined as 3.17 ± 0.32 mg/dL. Besides, the “Urea nitrogen in serum, glycerol treated” value in data set [3] worked out at 121.2 ± 9.0 mg/dL. In addition, the response vs control in vivo at 6.25 mg/kg was determined as 145% in data set [2] (setting [5]), 1% in data set [2] (setting [6]), 46% in data set [2] (setting [7]) and 42% in data set [2] (setting [8]).

With `CCCN1C(=O)N2C(=NCC2c2ccccc2)c2[nH]c(C3CCCC3)nc21` (stereo not shown) [11 Sa], the “Minimum lethal dose (MLD)” value in data set [1] was greater than 300 mg/kg.

Take `CCCN1C(=O)N2CC(CC)N=C2c2c1ncn2C` (stereo not shown) [Compound 4, 8-Ethyl-1-methyl-4-n-propyl-1,4,7,8-tetrahydro-5H-imidazo[2,1-i]purin-5-one]: the pIC50 with trachea was 7.44. For the same molecule, the “Minimum lethal dose (MLD)” value in data set [1] is greater than 300 mg/kg. In data set [4], the minimal effective dose is greater than 100 mg/kg.

Take `O=c1c2[nH]cnc2nc2n1CCCC2` [Compound 24, 1,5,6,7,8,10-Hexahydropyrido[1,2-a]purin-10-one]: the “Minimum lethal dose (MLD)” value in data set [1] is recorded as greater than 300 mg/kg.

Take `CCCN1C(=O)N2C(=NCC2CC)c2[nH]c(C3CCCC3)nc21` (stereo not shown) [18 Sa]: the “Creatinine in serum, glycerol treated” value in data set [3] was 2.85 ± 0.33 mg/dL. Further, the “Urea nitrogen in serum, glycerol treated” value in data set [3] came to 101.2 ± 9.9 mg/dL. For the same molecule, in data set [1], the “Minimum lethal dose (MLD)” value is on record as greater than 300 mg/kg. Also, the response vs control in vivo at 25 mg/kg in data set [2] (setting [5]) stood at 120%; in data set [2] (setting [6]), 37%; in data set [2] (setting [7]) it was 65%; in data set [2] (setting [8]) it was 92%.

Take `O=C1N2CCN=C2c2[nH]cnc2N1Cc1ccccc1` [Compound 9, 4-Benzyl-1,4,7,8-tetrahydro-5H-imidazo[2,1-i]purin-5-one]: in the data set on trachea, the pIC50 is less than 4.40. Further, in data set [4], the minimal effective dose was determined as 100 mg/kg.

Turning to `CCCN1C(=O)N2CC(C)N=C2c2[nH]c(C3CCCC3)nc21` (stereo not shown) [16 Sa], the “Creatinine in serum, glycerol treated” value in data set [3] amounted to 2.38 ± 0.24 mg/dL. Besides, in data set [3], the “Urea nitrogen in serum, glycerol treated” value was 80.9 ± 9.5 mg/dL. For the same molecule, the response vs control in vivo at 1.6 mg/kg in data set [2] (setting [5]) amounted to 152%; in data set [2] (setting [6]) it was 31%; in data set [2] (setting [7]), 99%; in data set [2] (setting [8]) it was 80%.

On to `CCCN1C(=O)N2CCN=C2c2[nH]c(C3CCCC3)nc21` [Compound 6, 2-Cyclopentyl-4-n-propyl-1,4,7,8-tetrahydro-5H-imidazo[2,1-i]purin-5-one], for which, in the data set on trachea, the pIC50 is less than 4.40. Besides, the “Creatinine in serum, glycerol treated” value in data set [3] stood at 1.81 ± 0.12 mg/dL. The minimal effective dose in data set [4] was found to be 50 mg/kg. The response vs control in vivo at 1.6 mg/kg stood at 155% in data set [2] (setting [5]), 30% in data set [2] (setting [6]), 102% in data set [2] (setting [7]) and 121% in data set [2] (setting [8]).

Take `NS(=O)(=O)c1cc(C(=O)O)c(NCc2ccco2)cc1Cl` [Furosemide, reference compound]: in data set [3], the “Creatinine in serum, glycerol treated” value worked out at 4.17 ± 0.41 mg/dL and the “Urea nitrogen in serum, glycerol treated” value stood at 150.3 ± 13.7 mg/dL. Further, the response vs control in vivo at 25 mg/kg in data set [2] (setting [5]) turned out to be 107%. For the same molecule, the response vs control in vivo at 25 mg/kg in data set [2] (setting [8]) stood at 75%.

On to `CCCN1C(=O)N2CCN=C2c2c1ncn2C` [Compound 1, 1-Methyl-4-n-propyl-1,4,7,8-tetrahydro-5H-imidazo[2,1-i]purin-5-one], for which the pIC50 with trachea was 8.52. The “Creatinine in serum, glycerol treated” value in data set [3] was 1.94 ± 0.16 mg/dL. Further, the “Minimum lethal dose (MLD)” value in data set [1] is listed as greater than 300 mg/kg. For the same molecule, the minimal effective dose in data set [4] is greater than 100 mg/kg.

Take `Cn1cnc2nc3n(c(=O)c21)CCCC3` [Compound 25, 1-Methyl-1,5,6,7,8,10-hexahydropyrido[1,2-a]purin-10-one]: in data set [1], the “Minimum lethal dose (MLD)” value is greater than 300 mg/kg.

For the molecule `CCCN1C(=O)N2CC(Cc3ccccc3)N=C2c2[nH]c(C3CCCC3)nc21` (stereo not shown) [12 Sa], the “Minimum lethal dose (MLD)” value in data set [1] is greater than 300 mg/kg. Further, the response vs control in vivo at 1.6 mg/kg came to 152% in data set [2] (setting [5]), 33% in data set [2] (setting [6]), 102% in data set [2] (setting [7]) and 159% in data set [2] (setting [8]).
